Results as given in patent US9226929B2, “Pharmaceutically active disubstituted triazine derivatives” (Bayer Intellectual Property GMBH, priority 2011, dated 2016).

Assays:
CDK9/Cyclin T1 = molecular target: T1, CDK9/Cyclin T1 (Homo sapiens, UniProt P50750); experiment: LanthaScreen Eu Kinase Binding Assay, CDK9/Cyclin T1; conditions: tracer 236, read-out: CDK9/Cyclin T1 (activity range), Kd
T1 construct: His; purchased Invitrogen
Summary of the method: (§1)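 TR-FRET displacement of an Alexa Fluor 647 active-site tracer, detected with a Eu anti-GST antibody, over an 8-point 1:3 compound series. Tracer was set at its Kd (30 nM for CDK2/Cyclin A, CDK7 and CDK9/Cyclin T1; 35 nM for CDK9/Cyclin K). Read after 1 h at room temperature; Kd was fitted from sigmoidal curves.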

CDK9/Cyclin K = molecular target: T2, CDK9/Cyclin K (Homo sapiens, UniProt P50750); experiment: LanthaScreen Eu Kinase Binding Assay, CDK9/Cyclin K; conditions: tracer 236, read-out: CDK9/Cyclin K (activity range), Kd
T2 construct: His; purchased Invitrogen
Summary of the method: as §1

CDK7/CyclinH/MAT1 = molecular target: T3, CDK7/CyclinH/MAT1 (Homo sapiens, UniProt P50613); experiment: LanthaScreen Eu Kinase Binding Assay, CDK7; conditions: tracer 236, read-out: CDK7 (activity range), Kd
T3 construct: His; purchased Carna Biosciences
Summary of the method: as §1

CDK4/CyclinD1 = molecular target: T4, CDK4/CyclinD1 (Homo sapiens, UniProt P11802); experiment: Lance Ultra KinaSelect Assay, CDK4; type: biochemical; conditions: ATP 90 μM; read-out: CDK4 LANCE assay (activity range), IC50
T4 construct: purchased Invitrogen
Method: 2. Measurement of half maximal inhibitory concentration to CDKs This protocol describes how the Lance Ultra KinaSelect Assay was performed to determine half maximal inhibitory concentration (1050) of compounds of general formula (I) and CDK/Cyclin complexes. The principle behind this enzymatic assay is based upon the phosphorylation of the ULight-Peptide Substrat. It is detected by using a specific
EU-labeled anti-phospho peptide antibody. The binding of the Eu-labeled anti-phospho peptide antibody to the phosphorylated ULight labeled peptide gives rise to a FRET-signal. Binding of an inhibitor to the kinase prevents phosphorylation of the ULight-MBP Substrat, resulting in a loss of FRET.
The compounds of general formula (I) summarized in Table 5 were diluted from a 10 mM DMSO stock solution 1:10 in a total volume of 15 μL DMSO. This compound predilution was then serial diluted 1:3 over 8 steps in DMSO and briefly spun down. Each compound solution was now diluted 1:20 in Enzymatic Buffer (HEPES: 50 mM, pH: 7.5; MgCl2: 10 mM; EGTA: 1 mM; DTT: 2 mM; Tween-20: 0.01%), mixed thoroughly and spun down. For every sample, 2 μL of the diluted compound were mixed with 6 μL CDK/Cyclin/Substrat solution and 2 μL ATP solution in a well of a small volume 384 well plate (Corning Incorporated, Corning, N.Y., USA; order no. 3673). The CDK/Cyclin was diluted to the appropriate concentration (see Table 3) and the ATP concentration was adjusted to its […] for the CDK/Cyclin, which was 3 μM for CDK2/Cyclin A, 20 μM for CDK1/Cyclin B1, 25 μM for CDK7/Cyclin H and CDK9/Cyclin T1, 55 μM for CDK6/Cyclin D3, 90 μM for CDK4/Cyclin D1 and 125 μM for CDK9/Cyclin K. For negative controls, in each well 2 μL of DMSO solution (1% final DMSO assay concentration) was mixed with 6 μL substrate solution (50 nM ULight MBP final assay concentration) and 2 μL ATP solution (appropriate final concentration see Table 3). For positive controls, in each well 2 μL of DMSO solution (1% final DMSO assay concentration) was mixed with 6 μL CDK/Cyclin/Substrat (appropriate final concentration see Table 3) and 2 μL Tracer ATP solution (appropriate final concentration see Table 3). Positive and negative controls were calculated from at least 8 different sample wells. The 384 well plates were mixed in a Teleshaker plate mixer (Beckman Coulter, Brea, Calif., USA) at 2000 rpm for 40 sec, and incubated for 1 h at room temperature. Before reading, 10 μL the detection buffer (Lance Detection Buffer 1×; EDTA: […]; Eu-Anti-P-MBP: see Table 3) was added. The FRET signal was measured at 340 nm excitation, 665 nm and 615 nm emission (for the kinase tracer and LanthaScreen Eu-AB, respectively) with an Envision spectrophotometer (Perkin Elmer, Waltham, Mass., USA) with 50 μs delay and 300 μs integration time. IC50 values were determined from the sigmoidal dose response curves with the software Quattro Workflow (Quattro GmbH, Munich, Germany).

T2 sequence (P50750 whole entry): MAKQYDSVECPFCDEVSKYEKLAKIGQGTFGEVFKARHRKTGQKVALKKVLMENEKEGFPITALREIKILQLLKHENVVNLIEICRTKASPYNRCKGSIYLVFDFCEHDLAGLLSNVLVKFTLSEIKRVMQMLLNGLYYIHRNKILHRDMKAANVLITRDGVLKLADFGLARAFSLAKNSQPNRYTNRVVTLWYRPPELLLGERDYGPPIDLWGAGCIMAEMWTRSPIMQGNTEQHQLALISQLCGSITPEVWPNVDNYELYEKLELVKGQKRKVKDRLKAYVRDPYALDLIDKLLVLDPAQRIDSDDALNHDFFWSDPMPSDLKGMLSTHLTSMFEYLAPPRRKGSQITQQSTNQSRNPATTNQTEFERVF
T2 sequence (O75909 1-357 isoform O75909-1 partner): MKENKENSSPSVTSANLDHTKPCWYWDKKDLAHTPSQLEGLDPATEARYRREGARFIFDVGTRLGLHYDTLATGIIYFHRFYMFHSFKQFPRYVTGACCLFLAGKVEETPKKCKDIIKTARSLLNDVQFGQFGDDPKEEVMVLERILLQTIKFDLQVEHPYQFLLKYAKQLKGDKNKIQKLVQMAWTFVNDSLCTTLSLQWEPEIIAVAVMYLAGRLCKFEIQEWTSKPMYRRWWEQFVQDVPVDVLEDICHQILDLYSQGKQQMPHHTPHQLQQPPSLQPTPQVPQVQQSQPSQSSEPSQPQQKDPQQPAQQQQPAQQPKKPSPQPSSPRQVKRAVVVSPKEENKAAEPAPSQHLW
T1 sequence (P50750 whole entry): as the sequence (P50750 whole entry) above
T1 sequence (O60563 whole entry partner): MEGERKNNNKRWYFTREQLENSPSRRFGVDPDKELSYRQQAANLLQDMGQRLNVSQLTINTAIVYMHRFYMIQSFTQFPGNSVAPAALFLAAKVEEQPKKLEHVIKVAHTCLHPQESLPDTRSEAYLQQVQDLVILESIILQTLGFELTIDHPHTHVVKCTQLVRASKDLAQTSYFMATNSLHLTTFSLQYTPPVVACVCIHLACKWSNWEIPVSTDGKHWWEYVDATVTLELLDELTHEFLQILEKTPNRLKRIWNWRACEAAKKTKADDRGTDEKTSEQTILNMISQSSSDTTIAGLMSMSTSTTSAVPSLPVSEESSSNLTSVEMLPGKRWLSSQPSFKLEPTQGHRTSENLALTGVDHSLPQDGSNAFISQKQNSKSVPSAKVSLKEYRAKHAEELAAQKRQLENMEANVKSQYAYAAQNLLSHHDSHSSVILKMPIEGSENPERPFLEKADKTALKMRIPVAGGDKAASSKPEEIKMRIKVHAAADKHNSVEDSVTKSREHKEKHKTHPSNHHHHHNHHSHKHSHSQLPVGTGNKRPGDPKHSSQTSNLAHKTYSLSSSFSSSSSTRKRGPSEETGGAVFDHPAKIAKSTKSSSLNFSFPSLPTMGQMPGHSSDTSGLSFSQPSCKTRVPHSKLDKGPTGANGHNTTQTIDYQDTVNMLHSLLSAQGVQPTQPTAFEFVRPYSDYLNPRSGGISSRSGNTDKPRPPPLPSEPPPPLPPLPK
T3 sequence (P50613 whole entry): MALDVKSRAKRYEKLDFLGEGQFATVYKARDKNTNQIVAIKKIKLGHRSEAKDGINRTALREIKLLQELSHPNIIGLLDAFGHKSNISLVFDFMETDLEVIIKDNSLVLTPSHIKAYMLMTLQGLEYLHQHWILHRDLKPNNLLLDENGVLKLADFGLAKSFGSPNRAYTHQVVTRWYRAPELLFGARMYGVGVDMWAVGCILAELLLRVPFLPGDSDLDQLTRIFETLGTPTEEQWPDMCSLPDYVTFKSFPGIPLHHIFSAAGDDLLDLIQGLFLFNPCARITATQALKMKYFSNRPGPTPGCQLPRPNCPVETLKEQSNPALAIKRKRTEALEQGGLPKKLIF
T3 sequence (P51946 whole entry partner): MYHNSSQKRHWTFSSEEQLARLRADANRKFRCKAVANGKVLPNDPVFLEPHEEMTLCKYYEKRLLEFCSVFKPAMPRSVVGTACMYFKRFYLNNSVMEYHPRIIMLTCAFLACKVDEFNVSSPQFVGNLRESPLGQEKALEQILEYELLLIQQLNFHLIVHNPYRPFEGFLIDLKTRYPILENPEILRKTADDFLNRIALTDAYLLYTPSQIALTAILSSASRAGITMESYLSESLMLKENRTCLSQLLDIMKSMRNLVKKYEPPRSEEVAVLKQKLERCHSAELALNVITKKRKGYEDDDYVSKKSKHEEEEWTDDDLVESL
T3 sequence (P51948 whole entry partner): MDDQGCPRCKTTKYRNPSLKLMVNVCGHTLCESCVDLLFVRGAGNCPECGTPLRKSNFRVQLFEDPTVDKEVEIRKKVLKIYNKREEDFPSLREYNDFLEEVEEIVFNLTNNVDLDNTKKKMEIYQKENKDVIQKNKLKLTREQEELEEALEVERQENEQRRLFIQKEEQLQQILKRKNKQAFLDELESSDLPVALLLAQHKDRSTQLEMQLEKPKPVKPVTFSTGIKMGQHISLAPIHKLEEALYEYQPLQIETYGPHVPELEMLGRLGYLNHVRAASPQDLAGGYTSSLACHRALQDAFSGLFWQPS
T4 sequence (P11802 whole entry): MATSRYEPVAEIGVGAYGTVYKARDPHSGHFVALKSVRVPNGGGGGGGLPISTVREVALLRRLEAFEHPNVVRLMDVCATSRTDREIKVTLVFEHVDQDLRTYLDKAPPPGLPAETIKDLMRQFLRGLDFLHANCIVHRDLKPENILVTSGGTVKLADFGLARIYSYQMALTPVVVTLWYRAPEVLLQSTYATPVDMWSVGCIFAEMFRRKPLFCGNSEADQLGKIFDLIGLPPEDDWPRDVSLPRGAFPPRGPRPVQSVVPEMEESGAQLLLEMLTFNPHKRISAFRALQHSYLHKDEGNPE
T4 sequence (P24385 whole entry partner): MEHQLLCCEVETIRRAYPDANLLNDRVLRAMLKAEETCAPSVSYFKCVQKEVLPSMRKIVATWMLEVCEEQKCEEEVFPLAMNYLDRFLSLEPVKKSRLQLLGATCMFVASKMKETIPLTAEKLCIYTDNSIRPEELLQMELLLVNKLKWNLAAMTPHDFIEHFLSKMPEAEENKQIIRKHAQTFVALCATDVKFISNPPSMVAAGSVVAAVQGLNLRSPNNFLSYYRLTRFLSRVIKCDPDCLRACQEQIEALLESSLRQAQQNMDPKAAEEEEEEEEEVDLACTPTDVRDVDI

Row | Kd (CDK9/Cyclin T1) | Kd (CDK9/Cyclin K) | Kd (CDK7/CyclinH/MAT1) | IC50 (CDK4/CyclinD1) | Structure (SMILES)
1 | 0.1 to 1 µM | 0.1 to 1 µM | > 10 µM | > 10 µM | NS(=O)(=O)Cc1cccc(Nc2ncnc(N3CCCCC3)n2)c1 [Compound B1, 3-[(4-(Piperidin-1-yl)-1,3,5-triazin-2-yl)amino]benzenemethane sulfonamide]
2 | < 0.1 µM |  | 1 to 10 µM |  | NS(=O)(=O)Cc1cccc(Nc2ncnc(N3CCc4ncsc4C3)n2)c1 [Compound B45, 3-[(4-(6,7-Dihydrothiazolo[5,4-c]pyridin-5(4H)-yl)-1,3,5-triazin-2-yl)amino]benzenemethanesulfonamide]
3 | < 0.1 µM | < 0.1 µM | 1 to 10 µM | > 10 µM | NS(=O)(=O)Cc1cccc(Nc2ncnc(N3CCc4ncccc4C3)n2)c1 [Compound B38, 3-[(4-(7,8-Dihydro-1,6-naphthyridin-6(5H)-yl)-1,3,5-triazin-2-yl)amino]-benzenemethanesulfonamide]
4 | < 0.1 µM | < 0.1 µM | 0.1 to 1 µM | 1 to 10 µM | NS(=O)(=O)Cc1cccc(Nc2ncnc(N3CCCn4nccc43)n2)c1 [Compound B47, 3-[(4-(6,7-Dihydropyrazolo[1,5-a]pyrimidin-4(5H)-yl)-1,3,5-triazin-2-yl)amino]benzenemethanesulfonamide]
5 | < 0.1 µM | 0.1 to 1 µM | > 10 µM | > 10 µM | COC[C@H]1CCCN1c1ncnc(Nc2cccc(CS(N)(=O)=O)c2)n1 [Compound B17, (R)-3-[(4-(2-(Methoxymethyl)pyrrolidin-1-yl)-1,3,5-triazin-2-yl)amino]benzenemethanesulfonamide]
6 | < 0.1 µM | < 0.1 µM | > 10 µM | > 10 µM | NS(=O)(=O)Cc1cccc(Nc2ncnc(N3CCCC3c3ccccc3)n2)c1 (racemic) [Compound B33, rac-3-[(4-(2-Phenylpyrrolidin-1-yl)-1,3,5-triazin-2-yl)amino]-benzenemethanesulfonamide]
7 | < 0.1 µM | 0.1 to 1 µM | > 10 µM |  | COC(=O)[C@H]1CCCN1c1ncnc(Nc2cccc(CS(N)(=O)=O)c2)n1 [Compound B21, (R)-Methyl 1-[4-((3-(Sulfamoylmethyl)phenyl)amino)-1,3,5-triazin-2-yl]pyrrolidine-2-carboxylate]
8 | < 0.1 µM | < 0.1 µM | 1 to 10 µM |  | NS(=O)(=O)Cc1cccc(Nc2ncnc(N3CCc4nc[nH]c4C3)n2)c1 [Compound B44, 3-[(4-(6,7-Dihydro-3H-imidazo[4,5-c]pyridin-5(4H)-yl)-1,3,5-triazin-2-yl)amino]benzenemethanesulfonamide]
9 | < 0.1 µM | < 0.1 µM | 1 to 10 µM | > 10 µM | NS(=O)(=O)Cc1cccc(Nc2ncnc(N3Cc4cn[nH]c4C3)n2)c1 [Compound B51, 3-[(4-(Pyrrolo[3,4-c]pyrazol-5(1H,4H,6H)-yl)-1,3,5-triazin-2-yl)amino]-benzenemethanesulfonamide]
